US10765114B2, “4-amino-6-(pyridyl and 2-substitutedphenyl)-picolinates and 6-amino-2-(pyridyl and 2-substitutedphenyl)-pyrimidine-4-carboxylates and their use as herbicides” (Dow AgroSciences LLC, priority 2013, dated 2020)
Read-outs that look alike come from different tables or passages of the source.

Legend:
[1] = system: Key Broadleaf Weed and Crop Species; experiment: Post-Emergent Test II (Table 5); format: in vivo; settings: post-emergence, 336 h; for pest or weed control at 70 g/ha: application rate 70 (kg ai/ha; footnote: g ai/ha); for pest or weed control at 140 g/ha: application rate 140 (kg ai/ha; footnote: g ai/ha)
Procedure: (§1) Seeds or nutlets of the desired test plant species were planted in Sun Gro Metro-Mix® 360 planting mixture, which typically has a pH of 6.0 to 6.8 and an organic matter content of about 30 percent, in plastic pots with a surface area of 64 square centimeters. When required to ensure good germination and healthy plants, a fungicide treatment and/or other chemical or physical treatment was applied. The plants were grown for 7-21 days in a greenhouse with an approximate 15 h photoperiod which was maintained at about 23-29° C. during the day and 22-28° C. during the night. Nutrients and water were added on a regular basis and supplemental lighting was provided with overhead metal halide 1000-Watt lamps as necessary. The plants were employed for testing when they reached the first or second true leaf stage.
(§2) A weighed amount, determined by the highest rate to be tested, of each test compound was placed in a 25 mL glass vial and was dissolved in 4 mL of a 97:3 v/v mixture of acetone and DMSO to obtain concentrated stock solutions. […] The concentrated stock solutions obtained were diluted with 20 mL of an aqueous mixture containing acetone, water, isopropyl alcohol, DMSO, Atplus 411F crop oil concentrate, and Triton® X-155 surfactant in a 48.5:39:10:1.5:1.0:0.02 v/v ratio to obtain spray solutions containing the highest application rates. Additional application rates were obtained by serial dilution of 12 mL of the high rate solution into a solution containing 2 mL of 97:3 v/v mixture of acetone and DMSO and 10 mL of an aqueous mixture containing acetone, water, isopropyl alcohol, DMSO, Atplus 411F crop oil concentrate, and Triton X-155 surfactant in a 48.5:39:10:1.5:1.0:0.02 v/v ratio to obtain ½×, ¼×, ⅛× and 1/16× rates of the high rate. Compound requirements are based upon a 12 mL application volume at a rate of 187 liters per hectare (L/ha). Formulated compounds were applied to the plant material with an overhead Mandel track sprayer equipped with 8002E nozzles calibrated to deliver 187 L/ha over an application area of 0.503 square meters at a spray height of 18 inches (43 cm) above the average plant canopy height. Control plants were sprayed in the same manner with the solvent blank.
(§3) The treated plants and control plants were placed in a greenhouse as described above and watered by subirrigation to prevent wash-off of the test compounds. After 14 days, the condition of the test plants as compared with that of the untreated plants was determined visually and scored on a scale of 0 to 100 percent where 0 corresponds to no injury and 100 corresponds to complete kill and presented as indicated in Table A. Some of the compounds tested, application rates employed, plant species tested, and results are given in Table 5.

[2] = system: Key Grass and Sedge Weeds as well as Grass Crops; experiment: Post-Emergent Test II (Table 6); format: in vivo; settings: for Visual Growth Reduction (%) 14 Days After Application, CYPSS: CYPSS (CYPES: yellow nutsedge, Cyperus esculentus); for Visual Growth Reduction (%) 14 Days After Application, DIGSA: DIGSA: crabgrass (Digitaria sanguinalis); for Visual Growth Reduction (%) 14 Days After Application, ECHSS: ECHSS (ECHCG: barnyardgrass, Echinochloa crus-galli); for Visual Growth Reduction (%) 14 Days After Application, ORYSS: ORYSS (ORYSA: rice, Oryza sativa); for Visual Growth Reduction (%) 14 Days After Application, ORYSS / Visual Growth Reduction (%) 14 Days After Application, TRZSS / Visual Growth Reduction (%) 14 Days After Application, ZEAMX: crop; for Visual Growth Reduction (%) 14 Days After Application, SETFA: SETFA: giant foxtail (Setaria faberi); for Visual Growth Reduction (%) 14 Days After Application, SORVU: SORVU: johnsongrass (Sorghum vulgare); for Visual Growth Reduction (%) 14 Days After Application, TRZSS: TRZSS (TRZAS: wheat, spring, Triticum aestivum); for Visual Growth Reduction (%) 14 Days After Application, ZEAMX: ZEAMX: maize, corn (Zea mays)
Procedure: as §1, §2, §3

[3] = Abutilon theophrasti, ABUTH: velvetleaf (Abutilon theophrasti), read-out: Visual Growth Reduction (%) 14 Days After Application ABUTH
[4] = Amaranthus retroflexus, AMARE: redroot pigweed (Amaranthus retroflexus), read-out: Visual Growth Reduction (%) 14 Days After Application AMARE
[5] = Brassica napus, BRSSS: oilseed rape, canola (Brassica napus), read-out: Visual Growth Reduction (%) 14 Days After Application BRSSS
[6] = Chenopodium album, CHEAL: lambsquarters (Chenopodium album), read-out: Visual Growth Reduction (%) 14 Days After Application CHEAL
[7] = Euphorbia heterophylla, EPHHL: wild poinsettia (Euphorbia heterophylla), read-out: Visual Growth Reduction (%) 14 Days After Application EPHHL
[8] = Helianthus annuus, HELAN: sunflower (Helianthus annuus), read-out: Visual Growth Reduction (%) 14 Days After Application HELAN
[9] = Viola tricolor, VIOTR: wild pansy (Viola tricolor), read-out: Visual Growth Reduction (%) 14 Days After Application VIOTR

Structure (SMILES)	pest or weed control at 70 g/ha [1, 3] [%]	pest or weed control at 140 g/ha [1, 3] [%]	pest or weed control at 70 g/ha [1, 4] [%]	pest or weed control at 140 g/ha [1, 4] [%]	pest or weed control at 70 g/ha [1, 5] [%]	pest or weed control at 140 g/ha [1, 5] [%]	pest or weed control at 70 g/ha [1, 6] [%]	pest or weed control at 140 g/ha [1, 6] [%]	pest or weed control at 70 g/ha [1, 7] [%]	pest or weed control at 140 g/ha [1, 7] [%]	pest or weed control at 70 g/ha [1, 8] [%]	pest or weed control at 140 g/ha [1, 8] [%]	pest or weed control at 70 g/ha [1, 9] [%]	pest or weed control at 140 g/ha [1, 9] [%]	Visual Growth Reduction (%) 14 Days After Application, CYPSS ([2]; 70 g ai/ha)	Visual Growth Reduction (%) 14 Days After Application, CYPSS ([2]; 140 g ai/ha)	Visual Growth Reduction (%) 14 Days After Application, DIGSA ([2]; 70 g ai/ha)	Visual Growth Reduction (%) 14 Days After Application, DIGSA ([2]; 140 g ai/ha)	Visual Growth Reduction (%) 14 Days After Application, ECHSS ([2]; 70 g ai/ha)	Visual Growth Reduction (%) 14 Days After Application, ECHSS ([2]; 140 g ai/ha)	other results
Nc1cc(-c2ccc(Cl)c(F)c2C(F)F)nc(C(=O)O)c1Cl [Compound 13, 4-Amino-3-chloro-6-(4-chloro-2-(difluoromethyl)-3-fluorophenyl)picolinic acid]	75 to 84	0 to 29	95 to 100	95 to 100	85 to 94	85 to 94	95 to 100	95 to 100	0 to 29	0 to 29	85 to 94	85 to 94	0 to 29	0 to 29	G (0-29)	G (0-29)	G (0-29)	G (0-29)	G (0-29)	G (0-29)	Visual Growth Reduction (%) 14 Days After Application, ORYSS ([2]; 70 g ai/ha): G (0-29); Visual Growth Reduction (%) 14 Days After Application, ORYSS ([2]; 140 g ai/ha): G (0-29); Visual Growth Reduction (%) 14 Days After Application, SETFA ([2]; 70 g ai/ha): G (0-29); Visual Growth Reduction (%) 14 Days After Application, SETFA ([2]; 140 g ai/ha): G (0-29); Visual Growth Reduction (%) 14 Days After Application, SORVU ([2]; 70 g ai/ha): G (0-29); Visual Growth Reduction (%) 14 Days After Application, SORVU ([2]; 140 g ai/ha): G (0-29); Visual Growth Reduction (%) 14 Days After Application, TRZSS ([2]; 70 g ai/ha): G (0-29); Visual Growth Reduction (%) 14 Days After Application, TRZSS ([2]; 140 g ai/ha): G (0-29); Visual Growth Reduction (%) 14 Days After Application, ZEAMX ([2]; 70 g ai/ha): G (0-29); Visual Growth Reduction (%) 14 Days After Application, ZEAMX ([2]; 140 g ai/ha): G (0-29)
COC(=O)c1nc(-c2ccc(Cl)c(F)c2Cl)c(F)c(N)c1Cl [Compound 19, Methyl 4-amino-3-chloro-6-(2,4-dichloro-3-fluorophenyl)-5-fluoropicolinate]	95 to 100	95 to 100	95 to 100	95 to 100	95 to 100	95 to 100	85 to 94	95 to 100	85 to 94	95 to 100	95 to 100	95 to 100	85 to 94	95 to 100	A (95-100)	A (95-100)	E (45-59)	C (75-84)	C (75-84)	A (95-100)	Visual Growth Reduction (%) 14 Days After Application, ORYSS ([2]; 70 g ai/ha): F (30-44); Visual Growth Reduction (%) 14 Days After Application, ORYSS ([2]; 140 g ai/ha): E (45-59); Visual Growth Reduction (%) 14 Days After Application, SETFA ([2]; 70 g ai/ha): C (75-84); Visual Growth Reduction (%) 14 Days After Application, SETFA ([2]; 140 g ai/ha): B (85-94); Visual Growth Reduction (%) 14 Days After Application, SORVU ([2]; 70 g ai/ha): B (85-94); Visual Growth Reduction (%) 14 Days After Application, SORVU ([2]; 140 g ai/ha): B (85-94); Visual Growth Reduction (%) 14 Days After Application, TRZSS ([2]; 70 g ai/ha): C (75-84); Visual Growth Reduction (%) 14 Days After Application, TRZSS ([2]; 140 g ai/ha): C (75-84); Visual Growth Reduction (%) 14 Days After Application, ZEAMX ([2]; 70 g ai/ha): B (85-94); Visual Growth Reduction (%) 14 Days After Application, ZEAMX ([2]; 140 g ai/ha): A (95-100)
COC(=O)c1nc(-c2ccc(Cl)c(F)c2Cl)nc(N)c1OC [Compound 42, Methyl 6-amino-2-(2,4-dichloro-3-fluorophenyl)-5-methoxypyrimidine-4-carboxylate]	95 to 100	95 to 100	95 to 100	95 to 100	95 to 100	95 to 100	95 to 100	95 to 100	30 to 44	60 to 74	85 to 94	85 to 94	60 to 74	60 to 74	A (95-100)	A (95-100)	G (0-29)	G (0-29)	G (0-29)	G (0-29)	Visual Growth Reduction (%) 14 Days After Application, ORYSS ([2]; 70 g ai/ha): G (0-29); Visual Growth Reduction (%) 14 Days After Application, ORYSS ([2]; 140 g ai/ha): G (0-29); Visual Growth Reduction (%) 14 Days After Application, SETFA ([2]; 70 g ai/ha): G (0-29); Visual Growth Reduction (%) 14 Days After Application, SETFA ([2]; 140 g ai/ha): G (0-29); Visual Growth Reduction (%) 14 Days After Application, SORVU ([2]; 70 g ai/ha): G (0-29); Visual Growth Reduction (%) 14 Days After Application, SORVU ([2]; 140 g ai/ha): F (30-44); Visual Growth Reduction (%) 14 Days After Application, TRZSS ([2]; 70 g ai/ha): F (30-44); Visual Growth Reduction (%) 14 Days After Application, TRZSS ([2]; 140 g ai/ha): E (45-59); Visual Growth Reduction (%) 14 Days After Application, ZEAMX ([2]; 70 g ai/ha): G (0-29); Visual Growth Reduction (%) 14 Days After Application, ZEAMX ([2]; 140 g ai/ha): G (0-29)
